Where two headings read alike, the source gives them in different places.
Assays:
bvFTD patients [1] = assay: Frontotemporal volume (FTV) change by MRI (Tensor-Based Morphometry); format: in vivo, human; settings: Patients receiving 8 mg/day, vs Cmax,ss ≤[…], 52 weeks
From the text: (§1) The two doses were provided in identical blister packages as visually identical oral tablets to be taken for up to 52 weeks. The primary outcome was the Addenbrookes Cognitive Examination – Revised (ACE-R). The Functional Activities Questionnaire (FAQ) and reduction in progression of whole brain atrophy were alternative co-primary outcomes. Other outcomes included: Modified Alzheimer’s Disease Cooperative Study – Clinical Global Impression of Change (Modified-CGIC) determined by a third independent rater; Frontotemporal Dementia Rating Scale (FRS); MMSE (from MMSE items incorporated into ACE-R); Addenbrookes Cognitive Examination – III (a revised version of ACE-R which excludes MMSE items subject to copyright restrictions); change in brain volume measured by MRI in frontal and temporal lobes (FTV) and lateral ventricles (LVV); and the effect of hydromethylthionine in patients with known genetic mutations associated with bvFTD. Blood was collected prospectively for the purpose of population PK analyses.
(§2) MRI scans were obtained at screening and weeks 16, 32, and 52. The acquisition protocol was standardized across sites and all data were centrally collected, quality-controlled, and analyzed by the imaging core laboratory (Bioclinica). MRI data included a 3D sagittal T1-weighted sequence (using parameters compatible with the ADNI protocol) which was used for all volumetric analyses. […]

AD patients = tested on: AD patients; set-up: method as in PMID 31658058; settings: cited from earlier work
bvFTD patients [2] = assay: UPDRS Part III motor safety outcome, 52-week Phase III trial; format: in vivo, human
Method: The primary analyses were specified as a mixed model, repeated-measures analysis with an unstructured covariance matrix and no imputation for missing data. The model included visit (three levels corresponding to assessments at weeks 16, 32, and 52), treatment group (two levels, 4 mg or 100 mg twice a day), a visit by treatment group interaction term, use of AD-labelled medications (two levels, using or not using), geographic region (three levels: North America, Asia/Australia, Europe), and baseline value of the variable analyzed. The individual comparisons were implemented through contrasts. The Bonferroni-Holm correction was used to take account of multiplicity arising from alternative co-primary outcomes (FAQ and whole brain atrophy). We used the same method for all secondary analyses in predefined gated sequences such that no further adjustment of alpha (0.05) was needed.
Blood samples for assessment of parent MT, N-desmethyl MT, and total MT (sum of parent MT and a labile LMT conjugate), were collected from each patient on the first treatment visit (two samples: pre-dose and approximately 3.5 h after the dose) and at each subsequent on-treatment visit. […] MT levels in plasma were measured using liquid chromatography-tandem mass spectrometry assay. […] Model development and estimation of steady state maximum plasma concentration (Cmax,ss) were determined independently by the Institute of Clinical Pharmacodynamics (ICPD, NY, USA). Cmax,ss estimates using a model validated in Phase I studies were based on in-clinic plasma concentration data obtained on Day 1 when the dose-sampling interval was accurately recorded. […] Change in ACE-R, ACE-III, FAQ, MMSE, Modified-CGIC, FRS, whole brain volume (WBV), lateral ventricular volume (LVV), and frontotemporal volume (FTV), as well as UPDRS Part III, were expressed as a function of Cmax,ss estimates grouped into four groups described in the results section. […]

bvFTD patients [3] = assay: Lateral ventricular volume (LVV) change by MRI; format: in vivo, human; settings: Patients receiving 8 mg/day, vs Cmax,ss ≤[…], 52 weeks
From the text: as §1, §2

[4] = Population PK: plasma-modeled parent MT Cmax,ss; format: in vivo, human; settings: for Cmax: both sexes, human, plasma, oral
Method: Blood samples for assessment of parent MT, N-desmethyl MT, and total MT (sum of parent MT and a labile LMT conjugate), were collected from each patient on the first treatment visit (two samples: pre-dose and approximately 3.5 h after the dose) and at each subsequent on-treatment visit. The protocol specified that PK plasma sampling was to be conducted only at sites with adequate facilities (i.e., a refrigerated centrifuge and adequate capability to freeze samples reliably). Blinded analyses were conducted at the University of Aberdeen GLP Test Facility. MT levels in plasma were measured using liquid chromatography-tandem mass spectrometry assay. The method was validated for use in the Phase III studies over the range 0.2 to 10 ng/ml. […] Model development and estimation of steady state maximum plasma concentration (Cmax,ss) were determined independently by the Institute of Clinical Pharmacodynamics (ICPD, NY, USA). Cmax,ss estimates using a model validated in Phase I studies were based on in-clinic plasma concentration data obtained on Day 1 when the dose-sampling interval was accurately recorded. The percentage of patients with Day 1 exposure levels below the lower calibration limit of the assay was used to define a proxy for placebo in post-hoc binary statistical comparisons of patients with low and high exposure to the drug with a view to informing the design of a future placebo-controlled trial. Change in ACE-R, ACE-III, FAQ, MMSE, Modified-CGIC, FRS, whole brain volume (WBV), lateral ventricular volume (LVV), and frontotemporal volume (FTV), as well as UPDRS Part III, were expressed as a function of Cmax,ss estimates grouped into four groups described in the results section. Cmax,ss values outside 3x the interquartile range were excluded from determination of concentration-response relationships, but were included in inferential statistical analyses.

Compound: CN(C)c1ccc2c(c1)Sc1cc(N(C)C)ccc1N2 [hydromethylthionine, leuco-methylthioninium bis(hydromethanesulphonate)]
- FTV: Difference±SEM for Cmax,ss > […] (bvFTD patients [1]): 0.72±0.27 cm^3
- steady state plasma levels with steep concentration-response relationships on cognitive and MRI outcomes in AD (AD patients; 8 mg/day dose, AD ref 49): 0.3 to 0.8 ng/mL
- estimated brain concentration required for pharmacological activity (AD patients): 0.02–0.06 μM
- plasma concentration threshold (Cmax,ss) identified in mild/moderate AD (AD patients): 0.373 ng/mL
- predicted optimal dose for treatment of AD (AD patients): about 16 mg/day
- dose sufficient to ensure that all patients have plasma levels above the threshold required for pharmacological activity (AD patients; combined AD and bvFTD populations ref 49): 16 mg/day
- plasma concentrations not associated with any additional benefit in AD (AD patients; doses 150–250 mg/day, AD ref 49): 4 to 21 ng/mL
- UPDRS – part III: Decline±SEM for LMTM 8 mg/day group (bvFTD patients [2]; 8 mg/day (n = 110), modeled change from baseline at 52 weeks): 3.90±1.06
- reduction in decline, UPDRS (bvFTD patients [2]; 8 mg/day, plasma levels above vs below […] threshold): 75%
- UPDRS – part III: Difference±SEM from LMTM 8 mg/day for 200 mg/day (bvFTD patients [2]; 200 mg/day (n = 104) vs 8 mg/day, 52 weeks): –1.40±1.61
- LVV: Difference±SEM for Cmax,ss > […] (bvFTD patients [3]): –4.12±1.06 cm^3
- Plasma-modeled parent MT Cmax,ss, Range ([4]; 200 mg/day): 6.800 to 14.235 ng/mL
- plasma levels at 200 mg/day relative to the highest level seen at 8 mg/day ([4]; 80 patients receiving 200 mg/day): 16 fold
- Cmax ([4]; 8 mg/day, 8 mg/day – Group 1, read-out: Plasma-modeled parent MT Cmax,ss, Mean (SD)): 0.321 ng/mL
- Cmax ([4]; 8 mg/day, 8 mg/day – Group 1, read-out: Plasma-modeled parent MT Cmax,ss, Range): 0.281 to 0.346 ng/mL
- Cmax ([4]; 8 mg/day, 8 mg/day – Group 2, read-out: Plasma-modeled parent MT Cmax,ss, Mean (SD)): 0.355 ng/mL
- Cmax ([4]; 8 mg/day, 8 mg/day – Group 2, read-out: Plasma-modeled parent MT Cmax,ss, Range): 0.346 to 0.372 ng/mL
- Cmax ([4]; 8 mg/day, 8 mg/day – Group 3, read-out: Plasma-modeled parent MT Cmax,ss, Mean (SD)): 0.387 ng/mL
- Cmax ([4]; 8 mg/day, 8 mg/day – Group 3, read-out: Plasma-modeled parent MT Cmax,ss, Range): 0.373 to 0.409 ng/mL
- Cmax ([4]; 8 mg/day, 8 mg/day – Group 4, read-out: Plasma-modeled parent MT Cmax,ss, Mean (SD)): 0.47 ng/mL
- Cmax ([4]; 8 mg/day, 8 mg/day – Group 4, read-out: Plasma-modeled parent MT Cmax,ss, Range): 0.413 to 0.583 ng/mL
- Cmax ([4]; 200 mg/day, read-out: Plasma-modeled parent MT Cmax,ss, Mean (SD)): 9.04 ng/mL
- Cmax ([4]; 200 mg/day, read-out: Plasma-modeled parent MT Cmax,ss, Range): 6.8 to 14.2 ng/mL

— publication PMC7306898, “Concentration-Dependent Activity of Hydromethylthionine on Clinical Decline and Brain Atrophy in a Randomized Controlled Trial in Behavioral Variant Frontotemporal Dementia” (Journal of Alzheimer's Disease, 2020)
